Experimental data: patent publication US10150766B2, “P2X7 modulators” (Jansssen Pharmaceutica NV, priority 2014, dated 2018)
Read-outs that look alike come from different tables or passages of the source.

Tests used:
P2X7 [1] = biological target: T1, P2X7 (Homo sapiens (Human), UniProt Q99572); experiment: P2X7 antagonism in human peripheral blood mononuclear cells (PBMCs), IL-1β release (LPS + Bz-ATP, ELISA); format: cell-based; conditions: P2X7, 10 μM test compound, LPS 30 ng/ml + Bz-ATP 0.5 mM, read-out: PBMC @10 μM (% control)
T1 sequence (Q99572 whole entry): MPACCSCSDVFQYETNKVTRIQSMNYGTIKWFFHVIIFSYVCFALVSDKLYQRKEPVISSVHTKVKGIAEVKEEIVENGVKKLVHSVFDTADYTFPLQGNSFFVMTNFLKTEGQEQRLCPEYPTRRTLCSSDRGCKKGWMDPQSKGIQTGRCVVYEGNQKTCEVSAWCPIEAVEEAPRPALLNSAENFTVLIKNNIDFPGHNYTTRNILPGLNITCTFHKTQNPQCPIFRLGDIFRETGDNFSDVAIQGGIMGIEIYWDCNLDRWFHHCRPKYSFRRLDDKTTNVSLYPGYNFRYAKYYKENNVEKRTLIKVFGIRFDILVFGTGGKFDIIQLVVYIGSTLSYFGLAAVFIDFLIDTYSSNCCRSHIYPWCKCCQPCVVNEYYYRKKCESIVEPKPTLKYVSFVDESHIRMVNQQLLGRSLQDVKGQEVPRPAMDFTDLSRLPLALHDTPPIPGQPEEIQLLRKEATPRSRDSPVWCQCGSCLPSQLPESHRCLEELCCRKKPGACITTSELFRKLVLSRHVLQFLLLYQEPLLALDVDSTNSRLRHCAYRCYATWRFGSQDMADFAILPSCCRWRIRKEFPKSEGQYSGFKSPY

P2X7 [2] = biological target: T1, P2X7; experiment: Radioligand binding ([3H]A-804598) to membranes of human P2X7-1321N1 cells; conditions: human P2X7-1321N1 membranes, tracer tritiated A-804598, 1 hour at 4° C.
Description: P2X7 Antagonism in Recombinant Human P2X7 Cells or Recombinant Rat P2X7 Cells:
human or rat P2X7-1321N1 cells were collected and frozen @ −80° C. On the day of the experiment, cell membrane preparations were made according to standard published methods. […] The compound can be prepared as described in the literature. […] The assay was terminated by filtration (GF/B filters pre-soaked with 0.3% PEI) and washed with washing buffer (Tris-HCl 50 mM). The IC50 generated in the binding assay was corrected for tracer concentration and affinity of the tracer to derive at the affinity (Ki) of the test compounds. The data are presented in Table 2 under the headings: P2X7 human Ki (μM) and P2X7 rat Ki (μM). Data are analyzed and graphed on Graphpad Prism 5. For analysis, each concentration point is averaged from triplicate values and the averaged values are plotted on Graphpad Prism.

rat P2X7 = rat P2X7 (Rattus norvegicus (Rat), UniProt Q64663); experiment: P2X7 antagonism in recombinant rat P2X7 cells (column headed P2X7 Rat IC50); format: binding
Chain of rat P2X7 (Q64663 whole entry): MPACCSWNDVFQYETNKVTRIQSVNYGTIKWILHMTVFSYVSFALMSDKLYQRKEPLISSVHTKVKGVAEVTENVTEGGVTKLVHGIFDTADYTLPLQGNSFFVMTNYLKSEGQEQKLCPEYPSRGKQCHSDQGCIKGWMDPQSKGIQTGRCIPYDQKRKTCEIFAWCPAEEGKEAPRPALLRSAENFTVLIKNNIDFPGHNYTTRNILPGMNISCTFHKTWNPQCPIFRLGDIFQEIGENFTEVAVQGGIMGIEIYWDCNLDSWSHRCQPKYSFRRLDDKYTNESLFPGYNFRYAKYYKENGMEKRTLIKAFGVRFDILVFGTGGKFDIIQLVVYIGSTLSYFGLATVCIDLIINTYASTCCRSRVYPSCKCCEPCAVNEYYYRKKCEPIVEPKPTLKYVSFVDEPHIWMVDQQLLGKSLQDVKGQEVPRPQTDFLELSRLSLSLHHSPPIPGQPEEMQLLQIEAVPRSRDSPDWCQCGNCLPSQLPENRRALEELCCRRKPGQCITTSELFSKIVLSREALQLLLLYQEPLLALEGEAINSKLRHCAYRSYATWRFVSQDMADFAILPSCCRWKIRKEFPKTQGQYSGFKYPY

P2X7 [3] = biological target: T1, P2X7; experiment: P2X7 antagonism in human whole blood, IL-1β release (LPS + Bz-ATP, ELISA); format: cell-based; conditions: LPS 30 ng/ml + Bz-ATP 1 mM
[4] = read-out: Human Whole Blood IC50

| Compound | remaining activity at 10 µM (P2X7 [1]) | Ki (P2X7 [2]) | IC50 (rat P2X7) | IC50 (P2X7 [3]; Human Whole Blood IC50 (μM)) | IC50 (P2X7 [3]; [4]) |
| --- | --- | --- | --- | --- | --- |
| Cc1nc(-c2ccnn2C)c2c(n1)[C@H]1CCC[C@@H](C2)N1C(=O)c1cccc(C(F)(F)F)c1Cl [Example 56, (2-chloro-3-(trifluoromethyl)phenyl)((6S,10R)-2-methyl-4-(1-methyl-1H-pyrazol-5-yl)-5,6,7,8,9,10-hexahydro-6,10-epiminocycloocta[d]pyrimidin-11-yl)methanone] | -2.9% | 100 nM | 11.6 nM | 0.048 µM |  |
| Cc1nc(-c2ccnn2C)c2c(n1)[C@H]1CCC[C@@H](C2)N1C(=O)c1cccc(C(F)(F)F)c1C [Example 57, (2-methyl-3-(trifluoromethyl)phenyl)((6S,10R)-2-methyl-4-(1-methyl-1H-pyrazol-5-yl)-5,6,7,8,9,10-hexahydro-6,10-epiminocycloocta[d]pyrimidin-11-yl)methanone] | -0.3% | 190 nM | 597 nM |  | 0.191 µM |
| Cc1nc(-c2ccnn2C)c2c(n1)[C@H]1CCC[C@@H](C2)N1C(=O)c1ccc(Cl)c(F)c1Cl [Example 58, (2,4-dichloro-3-fluorophenyl)((6S,10R)-2-methyl-4-(1-methyl-1H-pyrazol-5-yl)-5,6,7,8,9,10-hexahydro-6,10-epiminocycloocta[d]pyrimidin-11-yl)methanone] | -3.3% | 93.3 nM | 805 nM |  | 0.13 µM |
| Cc1nc(-c2ccnn2C)c2c(n1)[C@H]1CCC[C@@H](C2)N1C(=O)c1cccc(Cl)c1Cl [Example 59, (2,3-dichlorophenyl)((6S,10R)-2-methyl-4-(1-methyl-1H-pyrazol-5-yl)-5,6,7,8,9,10-hexahydro-6,10-epiminocycloocta[d]pyrimidin-11-yl)methanone] | -1.8% | 135 nM | 1090 nM |  | 0.372 µM |
| Cc1nc(-c2ccccn2)c2c(n1)[C@H]1CCC[C@@H](C2)N1C(=O)c1cccc(C(F)(F)F)c1C [Example 62, (2-methyl-3-(trifluoromethyl)phenyl)((6S,10R)-2-methyl-4-(pyridin-2-yl)-5,6,7,8,9,10-hexahydro-6,10-epiminocycloocta[d]pyrimidin-11-yl)methanone] | -1.4% | 63.1 nM | 51.3 nM | 0.058 µM |  |
| Cc1nc(-c2ccccn2)c2c(n1)[C@H]1CCC[C@@H](C2)N1C(=O)c1cccc(C(F)(F)F)c1Cl [Example 63, (2-chloro-3-(trifluoromethyl)phenyl)((6S,10R)-2-methyl-4-(pyridin-2-yl)-5,6,7,8,9,10-hexahydro-6,10-epiminocycloocta[d]pyrimidin-11-yl)methanone] | -0.9% | 39.8 nM | 33.1 nM | 0.068 µM |  |
| Cc1nc(-c2ccccn2)c2c(n1)[C@H]1CCC[C@@H](C2)N1C(=O)c1ccc(Cl)c(F)c1Cl [Example 64, (2,4-dichloro-3-fluorophenyl)((6S,10R)-2-methyl-4-(pyridin-2-yl)-5,6,7,8,9,10-hexahydro-6,10-epiminocycloocta[d]pyrimidin-11-yl)methanone] | -2.8% | 20 nM | 376 nM | 0.037 µM |  |
| Cc1nc(-c2ccccn2)c2c(n1)[C@H]1CCC[C@@H](C2)N1C(=O)c1cccc(Cl)c1Cl [Example 65, (2,3-dichlorophenyl)((6S,10R)-2-methyl-4-(pyridin-2-yl)-5,6,7,8,9,10-hexahydro-6,10-epiminocycloocta[d]pyrimidin-11-yl)methanone] | 0.1% | 49 nM | 184 nM | 0.042 µM |  |
